One data set relates to S. aureus. The conditions noted are these: cited from earlier work.
The test system of the next data set is P. aeruginosa. The conditions noted are these: 50 µg/mL; 670 nm; 97.65 J/cm^2; 5 min; cited from earlier work.
Details of data set [1]: method as in doi:10.1016/j.synthmet.2008.06.007. The conditions noted are these: TTF column, cited from earlier work.
For data set [2] the following is noted: cited from earlier work.
Another data set relates to Aliivibrio fischeri. Description: Microtox acute toxicity test. The conditions noted are these: tested at 1, 10 and 100 µM. The class given is cell-based. An excerpt:
All studied compounds were subjected to a Microtox acute toxicity test. The test is based on bioluminescent Aliivibrio fischeri bacteria, which are very sensitive to the presence of toxic substances. Changes in the toxicity of the environment surrounding the bacterium influence its respiratory processes and translate into the emitted bioluminescence intensity. Therefore, in contact with a toxic substance at a specific concentration, a linear decrease in luminescence is observed. Dimethylsulfoxide was used as a solubilizer of studied compounds in amounts not exceeding 1% v/v. To determine the effect of the solvent alone, 1% DMSO solution in water was also tested.
The acute toxicity of the tested curcumionoids was investigated on a Modern Water Microtox Model 500 apparatus equipped with Modern Water MicrotoxOmni 4.2 software, according to the 81.9% screening test procedure provided by the manufacturer (Modern Water, London, UK). All the reagents and solutions (Microtox Acute Reagent, Microtox Diluent, and Microtox Osmotic Adjusting Solution) were purchased from Tigret (Warsaw, Poland). Solutions of the tested compounds were prepared using DMSO and deionized water. […] Each compound was tested at three final concentrations (1 µM, 10 µM, and 100 µM) and at two time points: 5 min and 15 min. The change in the bacterial bioluminescence was monitored after the addition of the sample solution and compared to the negative control.

Molecules are shown by their SMILES. Where two headings read alike, the source gives them in different places.

As for `O=C([O-])c1c(Cl)c(Cl)c(Cl)c(Cl)c1-c1c2cc(I)c(=O)c(I)c-2oc2c(I)c([O-])c(I)cc12.[Na+].[Na+]` [Rose bengal], the “Efficiency (log reduction)” value with S. aureus (0.31 µg/mL, 515 nm, 5.8 mW/cm^2, 37 J/cm^3) is recorded as 6 log; with S. aureus (0.62 µg/mL, 515 nm, 5.8 mW/cm^2, 18 J/cm^2), 6 log.
As to `Cc1cc2nc3ccc(N(C)C)cc3[s+]c2cc1N.[Cl-]` [Toluidine blue], the “Efficiency (log reduction)” value with P. aeruginosa is 2.36 log; in the data set on S. aureus (50 µg/mL, 670 nm, 97.65 J/cm^2, 5 min) it was 2.66 log.
Turning to `[Zn+2].c1ccc2c(c1)-c1nc-2nc2[n-]c(nc3nc([n-]c4nc(n1)-c1ccccc1-4)-c1ccccc1-3)c1ccccc21` [ZnPc, zinc(II) phthalocyanine], the “singlet oxygen quantum yield” value in data set [1] (DMF) is 0.56 [39]; in data set [1] (DMSO), 0.67 [39]. The “10^−5 Φp (photodecomposition quantum yield)” value was 1.02 [38] 10^−5 in data set [2] (DMF) and 0.35 [39] 10^−5 in data set [2] (DMSO). Moreover, the “ΦP (photodecomposition quantum yield)” value is 10.2 × 10^−6 in data set [2] (DMF) and 3.5 × 10^−6 in data set [2] (DMSO).
In the case of `COc1cc(C=CC2=CC(C=Cc3ccc(O)c(OC)c3)=[O+][B-](F)(F)O2)ccc1O` [curcumin–BF2 complex, reference compound], in the data set with Aliivibrio fischeri, the “acute toxicity / ecotoxicity verdict” value is “toxic at every concentration tested”.
